Series [1] is described as follows: Peak concentration (Cmax) at a dose of 20 mg/kg in rats. The format is ADME, organism-based. Details: dose 20 mg/kg. As to conditions: rat, in vivo.
Series [2] is described as follows: Time for peak concentration (tmax) at a dose of 20 mg/kg in rats. The format is ADME, organism-based. Details: dose 20 mg/kg. As to conditions: rat, in vivo.
Series [3] has as its system MT4. Briefly: The compound was tested for cytotoxicity against mock-infected MT-4 cells. Format: functional. The conditions noted are these: Homo sapiens.
Series [4] relates to MT4. Briefly: The compound was tested against HIV-1(IIIB) replication on the inhibition of virus -induced cytopathogenicity in MT-4 cells. Format: functional, cell-based. As to conditions: Homo sapiens. For orientation: Cytopathic effects are the visible damage that an infection or toxin causes in cultured cells.
Series [5] has as its system MT4. Briefly: The compound was tested against HIV-1(IIIB) replication on the inhibition of virus -induced cytopathogenicity in MT-4 cells. Format: functional, cell-based. The conditions noted are these: Homo sapiens.
Series [6] concerns MT4. The series is described as follows: The compound was tested for cytotoxicity against mock-infected MT-4 cells. As to conditions: Homo sapiens. Format: functional.
Series [7] in a line: Peak concentration (Cmax) at a dose of 10 mg/kg in rats. As to conditions: rat, in vivo. Format: ADME, organism-based. Also on record: dose 10 mg/kg.
Series [8] can be described thus: Time for peak concentration (tmax) at a dose of 10 mg/kg in rats. The format is ADME, organism-based. Also on record: dose 10 mg/kg. As to conditions: rat, in vivo.
Series [9] is described as follows: Half-life period after intravenous administration in cynomolgus monkeys. The conditions noted are these: cercopithecidae, in vivo. The format is ADME, organism-based.
The nature of series [10]: Area under curve was determined using trapezoidal rule after intravenous administration in cynomolgus monkeys. The format is ADME. The conditions noted are these: cercopithecidae, in vivo.
Series [11] is described as follows: Bioavailability was reported in cynomolgus monkeys (ratio of AUC in oral administration to that of intravenous administration). Format: ADME, organism-based. As to conditions: cercopithecidae, in vivo, read-out: BA.
The nature of series [12]: The time for peak concentration value after oral administration in cynomolgus monkeys. The format is ADME, organism-based. As to conditions: cercopithecidae, in vivo.
The nature of series [13]: Mean residence time was determined after intravenous administration in cynomolgus monkeys. The format is ADME, organism-based. As to conditions: cercopithecidae, in vivo.
A short description of series [14]: The peak concentration (Cmax) value after oral administration in cynomolgus monkeys. The format is ADME, organism-based. Details: route oral. As to conditions: cercopithecidae, in vivo.
Series [15] in a line: The distribution volume after intravenous administration in cynomolgus monkeys. The format is ADME, organism-based. As to conditions: cercopithecidae, in vivo, read-out: Vdss.
Series [16] can be described thus: The total clearance was determined after intravenous administration in cynomolgus monkeys. As to conditions: cercopithecidae, in vivo, read-out: CLtotal (converted). Format: ADME, organism-based.
The nature of series [17]: Half-life period after oral administration in cynomolgus monkeys. The format is ADME, organism-based. The conditions noted are these: cercopithecidae, in vivo.
Series [18] can be described thus: Area under curve was determined using trapezoidal rule after oral administration in cynomolgus monkeys. Format: ADME. As to conditions: cercopithecidae, in vivo.

One may read the Cmax as the highest concentration seen after dosing. The term Tmax denotes the time at which the peak concentration occurs. In general, CC50 refers to the concentration that lowers cell viability or growth by half. The IC50 is the concentration that inhibits the measured activity by half. A word on the half-life: it is how long it takes for the measured level to halve. A lower half-life goes with fast loss. What is called AUC is concentration integrated over time. The MRT is the average time that molecules of a dose stay in the body.

Molecule `CCn1cc(C(=O)O)c(=O)c2cc(F)c(N3CCN(c4ncccn4)CC3)c(C(F)(F)F)c21` displayed a Cmax in [1] of 5460 ng/mL. For the same molecule, in series [2], the Tmax was determined as 2 h. Besides, the midpoint of cytotoxicity in [3], the CC50, lay at 1500 nM. In [4], the IC50 came to 95 nM.

`O=C(O)c1cn(C2CC2)c2c(C(F)(F)F)c(N3CCN(c4ncccn4)CC3)c(F)cc2c1=O`: the Cmax in [1] amounted to 7020 ng/mL. The Tmax in series [2] was 1 h. In addition, the CC50 in [3] was 5200 nM. This molecule returned an IC50 in series [4] of 190 nM.

`Cn1cc(C(=O)O)c(=O)c2cc(F)c(N3CCN(c4ccccn4)CC3)c(C(F)F)c21`: in series [5], the IC50 is 240 nM. Half-maximal cytotoxicity in [6] (CC50) was put at 9200 nM.

On to `Cn1cc(C(=O)O)c(=O)c2cc(F)c(N3CCN(c4ncccn4)CC3)c(C(F)F)c21`, for which, in series [3], the CC50 worked out at 13000 nM. Also, in [4], the midpoint of inhibition, the IC50, lay at 310 nM.

With `CCn1cc(C(=O)O)c(=O)c2cc(F)c(N3CCN(c4ccccc4OC)CC3)c(C(F)F)c21`, in series [5], the IC50 was found to be 220 nM. The same molecule yielded a CC50 in series [6] of 8300 nM.

As to `CCn1cc(C(=O)O)c(=O)c2cc(F)c(N3CCN(c4ccccn4)CC3)c(C(F)F)c21`, the IC50 in series [5] was 890 nM. The same molecule registered a half-maximal cytotoxic concentration (CC50) in series [6] of 4100 nM.

`CCn1cc(C(=O)O)c(=O)c2cc(F)c(N3CCN(c4ccccc4OC)CC3)c(C(F)(F)F)c21` gave a cytotoxic concentration (CC50) in [3] of 750 nM. The molecule also registered an IC50 in [4] of 110 nM.

In series [5], `O=C(O)c1cn(C2CC2)c2c(C(F)F)c(N3CCN(c4ccccn4)CC3)c(F)cc2c1=O` registered a half-inhibitory concentration (IC50) of 490 nM. Besides, in series [6], it took 9200 nM to reach half-maximal cytotoxicity (CC50).

Consider `COc1ccccc1N1CCN(c2c(F)cc3c(=O)c(C(=O)O)cn(C)c3c2C(F)(F)F)CC1`, for which, in [7], the Cmax amounted to 2770 ng/mL. The CC50 in [3] amounted to 500 nM. The molecule further showed a half-maximal inhibitory concentration (IC50) in series [4] of 54 nM. Besides, the Tmax in [8] amounted to 2 h.

Take `COc1ccccc1N1CCN(c2c(F)cc3c(=O)c(C(=O)O)cn(C)c3c2C(F)F)CC1`: in series [5], the IC50 was 350 nM. The molecule also yielded a CC50 in series [6] of 11000 nM.

In the case of `O=C(O)c1cn(C2CC2)c2c(C(F)(F)F)c(N3CCN(c4ccccn4)CC3)c(F)cc2c1=O`, the half-life in series [9] was 0.7 h. In series [10], this molecule came in with an AUC of 3500 ng·h/mL. In [11], the bioavailability amounted to 4.3%. In addition, the Tmax in series [12] and in series [2] was 2 h each time. Further, the MRT in series [13] is 0.8 h. For the same molecule, the Cmax in [14] was 100 ng/mL; in [1], 5830 ng/mL. For the same molecule, in [15], the Vd was 0.225 L/kg. The clearance in series [16] is 4.89 mL/min/kg. In addition, in series [3], the CC50 stood at 1400 nM. In series [4], this molecule had an IC50 of 65 nM.

Consider `COc1ccccc1N1CCN(c2c(F)cc3c(=O)c(C(=O)O)cn(C4CC4)c3c2C(F)(F)F)CC1`, for which the Cmax in series [1] is 3460 ng/mL. Besides, in [2], the Tmax came to 4 h. In addition, the CC50 in series [3] is 870 nM. Moreover, the half-maximal inhibitory concentration (IC50) in series [4] is 69 nM.

`CCn1cc(C(=O)O)c(=O)c2cc(F)c(N3CCN(c4ccccn4)CC3)c(C(F)(F)F)c21` displayed a Cmax in [1] of 6740 ng/mL. The Tmax in series [2] came out at 2 h. In [3], this molecule gave a CC50 of 370 nM. Half-maximal inhibition in series [4] (IC50) was put at 26 nM.

On to `Cn1cc(C(=O)O)c(=O)c2cc(F)c(N3CCN(c4ncccn4)CC3)c(C(F)(F)F)c21`, for which the figures for the half-life in [9] and in series [17] were 7.6 h and 8.7 h, respectively. In addition, the AUC in [10] was 16400 ng·h/mL; in [18], 18400 ng·h/mL. The bioavailability in [11] was 112%. In addition, the Tmax was 4 h in series [12] and 1 h in [2]. In series [13], this molecule gave a mean residence time (MRT) of 8.2 h. Further, the Cmax amounted to 1500 ng/mL in series [14] and 58500 ng/mL in series [1]. Further, the Vd in series [15] is 0.491 L/kg. The clearance in [16] was 1.08 mL/min/kg. In series [3], this molecule registered a 50% cytotoxic concentration (CC50) of 890 nM. Also, the IC50 in [4] was 49 nM.

In the case of `Cn1cc(C(=O)O)c(=O)c2cc(F)c(N3CCN(c4ccccn4)CC3)c(C(F)(F)F)c21`, the half-life is 8.8 h in series [9] and 7.5 h in series [17]. In addition, the AUC amounted to 18400 ng·h/mL in series [10] and 17200 ng·h/mL in [18]. In addition, the bioavailability in [11] was 93.5%. The Tmax in series [12] was determined as 2 h; in [2], 1 h. Moreover, the MRT in series [13] was determined as 9.3 h. Besides, the results for the Cmax in series [14] and in [1] were 1400 ng/mL and 26400 ng/mL, respectively. Also, the Vd in [15] stood at 0.509 L/kg. Besides, in [16], the clearance was 0.928 mL/min/kg. Besides, in series [3], the CC50 turned out to be 220 nM. The same molecule came in with an IC50 in series [4] of 14 nM.

In series [3], `CCn1cc(C(=O)O)c(=O)c2cc(F)c(N3CCN(c4ncccn4)CC3)c(C(F)F)c21` registered a CC50 of 20000 nM. The IC50 in [4] was determined as 470 nM.

For the molecule `O=C(O)c1cn(C2CC2)c2c(C(F)F)c(N3CCN(c4ncccn4)CC3)c(F)cc2c1=O`, the midpoint of inhibition in [5], the IC50, lay at 3700 nM. Further, the CC50 in series [6] was determined as 21000 nM.

`COc1ccccc1N1CCN(c2c(F)cc3c(=O)c(C(=O)O)cn(C4CC4)c3c2C(F)F)CC1` showed a CC50 in series [3] of 12000 nM. In series [4], it took 560 nM to reach half-maximal inhibition (IC50).
